Earlier results as cited in US6132766A, “Multivesicular liposomes with controlled release of encapsulated biologically active substances” (priority 1998, dated 2000).

What was measured:
[1] = unencapsulated drug; about
[2] = system: strains of both gram negative and gram positive bacteria; settings: background statement

For `NCC[C@H](O)C(=O)N[C@@H]1C[C@H](N)[C@@H](O[C@H]2O[C@H](CN)[C@@H](O)[C@H](O)[C@H]2O)[C@H](O)[C@H]1O[C@H]1O[C@H](CO)[C@@H](O)[C@H](N)[C@H]1O` [amikacin], the serum half-life [1] is given as “two to three” and the “activity against strains of both gram negative and gram positive bacteria” value [2] is given as “clinically significant activity”.
